# According to patent US6964759B2, “Formulations containing an anticholinergic drug for the treatment of chronic obstructive pulmonary disease” (Chiesi Farmaceutici S.p.A., priority 2000, dated 2005):
# Experiments:
# [1] = Aerodynamic particle size distribution and delivery performance, Andersen Cascade Impactor; type: physicochemical
# Method: The aerodynamic particle size distribution of each tested formulation was characterized using a Multistage Cascade Impactor according to the procedure described in European Pharmacopoeia 2nd edition, 1995, part V.5.9.1, pages 15-17. In this specific case, an Andersen Cascade Impactor (ACI) was used.
# Results were obtained as a mean of 3-4 cans. For each device, 5-25 cumulative actuations were carried out after discarding the first 5.
# Deposition of the drug on each ACI plate was determined by high pressure liquid chromatography (HPLC). Mean metered dose was calculated from the cumulative deposition in the actuator and ACI (stages); mean delivered dose was calculated from the cumulative deposition in the ACI. Mean respirable dose (fine particle dose) was obtained from the deposition on Stages 3 to filter corresponding to particles ≦4.71 μm, divided by the number of actuations per experiment.
# MAD and associated GSD (standard geometric deviation) values were obtained from probit transformation of cumulative percent undersize—log (ACI effective cut-off particle size diameter) and linear regression analysis of the resultant data, (Ph. Eur. Supp 1999).
# The use of a metering chamber volume of 100 μl allows a 320 μg strength variant of the 160 μg formulation.
# The delivery characteristics of the formulation in cans equipped with standard Bespack BK 360 actuators with 0.3 mm orifice diameter and a metering chamber volume of 50 μl are reported in Table 2. The use of a metering chamber volume of 100 μl allows a 160 μg strength variant of the 80 μg formulation.
# The relevant parameters were determined as described in Example 1.
# [2] = inhaled single doses of at least 160 μg; cited from earlier work
# [3] = nominal dose 20 μg, HFA 134a, 13% ethanol, 1% glycerol
# [4] = nominal dose 20 μg, HFA 134a, 13% ethanol, 1% glycerol, 0.3 mm orifice, 50 μl chamber
# [5] = nominal dose 40 μg, HFA 134a, 13% ethanol, 1% glycerol
# [6] = nominal dose 40 μg, HFA 134a, 13% ethanol, 1% glycerol, 0.3 mm orifice, 50 μl chamber
# [7] = nominal dose 80 μg, HFA 134a, 13% ethanol, 1% glycerol
# [8] = nominal dose 80 μg, HFA 134a, 13% ethanol, 1% glycerol, 0.3 mm orifice, 50 μl chamber
# [9] = nominal dose 80 μg, HFA 134a, 19% ethanol, without the low volatility component
# [10] = nominal dose 160 μg, HFA 134a, 13% ethanol, 1% glycerol
# [11] = nominal dose 160 μg, HFA 134a, 13% ethanol, 1% glycerol, 0.3 mm orifice, 50 μl chamber
# [12] = nominal dose 160 μg, HFA 134a, 19% ethanol, without the low volatility component
# [13] = nominal dose 320 μg, HFA 134a, 13% ethanol, 1% glycerol
# [14] = nominal dose 320 μg, HFA 134a, 13% ethanol, 1% glycerol, 0.3 mm orifice, 100 μl chamber
structure (smiles),measurement,setting,value
CC(C)[N+]1(C)[C@@H]2CC[C@H]1CC(OC(=O)C(CO)c1ccccc1)C2.[Br-] (stereo partly drawn) [ipratropium bromide],MAD,"[1]; Example 1 formulations with glycerol, over all nominal doses",2.2-2.9 μm
same,MAD,"[1]; formulation containing an ethanol level of 19% by weight, nominal doses 80 and 160 μg",1.2-1.3 μm
same,GSD,[1]; [3],2.1 ± 0.8
same,MAD,[1]; [3],2.4 ± 0.3 μm
same,Respirable fraction,[1]; [3],33.3 ± 3.8%
same,Delivered dose,[1]; [4],18.8 ± 1.6 µg
same,Metered dose,[1]; [4],20.6 ± 1.6 µg
same,Respirable dose,"[1]; nominal dose 20 μg, particles less than 4.7 μm, HFA 134a, 13% ethanol, 1% glycerol",6.8 ± 1.1 µg
same,GSD,[1]; [5],2.1 ± 0.1
same,MAD,[1]; [5],2.2 ± 0.1 μm
same,Respirable fraction,[1]; [5],31.5 ± 3.8%
same,Delivered dose,[1]; [6],38.7 ± 1.9 µg
same,Metered dose,[1]; [6],42.2 ± 1.8 µg
same,Respirable dose,"[1]; nominal dose 40 μg, particles less than 4.7 μm, HFA 134a, 13% ethanol, 1% glycerol",11.7 ± 1.2 µg
same,GSD,[1]; [7],2.2 ± 0.1
same,MAD,[1]; [7],2.7 ± 0.3 μm
same,Respirable fraction,[1]; [7],32.0 ± 6.1%
same,Delivered dose,[1]; [8],72.7 ± 0.6 µg
same,Metered dose,[1]; [8],78.5 ± 0.4 µg
same,Delivered dose,[1]; [9],70.0 ± 1.0 µg
same,GSD,[1]; [9],4.3 ± 0.4
same,MAD,[1]; [9],1.2 ± 0.1 μm
same,Respirable dose,[1]; [9],20.0 ± 1.3 µg
same,Respirable fraction,[1]; [9],28.7 ± 1.5%
same,Metered dose,"[1]; nominal dose 80 μg, HFA 134a, 19% ethanol, without the low volatility component, 0.3 mm orifice, 50 μl chamber",76.6 ± 1.6 µg
same,Respirable dose,"[1]; nominal dose 80 μg, particles less than 4.7 μm, HFA 134a, 13% ethanol, 1% glycerol",23.3 ± 4.5 µg
same,GSD,[1]; [10],2.3 ± 0.1
same,MAD,[1]; [10],2.5 ± 0.2 μm
same,Respirable fraction,[1]; [10],30.4 ± 3.5%
same,Delivered dose,[1]; [11],149.2 ± 10.7 µg
same,Metered dose,[1]; [11],161.1 ± 12.5 µg
same,Delivered dose,[1]; [12],144.2 ± 1.7 µg
same,GSD,[1]; [12],6.2 ± 0.2
same,MAD,[1]; [12],1.3 ± 0.2 μm
same,Respirable dose,[1]; [12],31.4 ± 1.3 µg
same,Respirable fraction,[1]; [12],21.8 ± 1.1%
same,Metered dose,"[1]; nominal dose 160 μg, HFA 134a, 19% ethanol, without the low volatility component, 0.3 mm orifice, 100 μl chamber",158.5 ± 2.0 µg
same,Respirable dose,"[1]; nominal dose 160 μg, particles less than 4.7 μm, HFA 134a, 13% ethanol, 1% glycerol",45.2 ± 2.5 µg
same,GSD,[1]; [13],2.6 ± 0.1
same,MAD,[1]; [13],2.9 ± 0.2 μm
same,Respirable fraction,[1]; [13],25.2 ± 1.2%
same,Delivered dose,[1]; [14],290.5 ± 1.9 µg
same,Metered dose,[1]; [14],321.4 ± 2.0 µg
same,Respirable dose,"[1]; nominal dose 320 μg, particles less than 4.7 μm, HFA 134a, 13% ethanol, 1% glycerol",73.2 ± 3.0 µg
same,Duration of action,[2],up to 12 hours
